Experimental data published in US5646128A, “Methods for treating adenosine kinase related conditions” (priority 1994, dated 1997).
“Also recorded” adds a separate entry of the source.

Columns and labels:
[1] = system: adenosine release, rat cardiomyocytes; details: cited from earlier work
[2] = system: adenosine uptake, guinea pig brain slices; details: cited from earlier work
[3] = cited from earlier work
[4] = system: fMLP-stimulated human neutrophils on human umbilical vein endothelial cells; experiment: Inhibition of neutrophil adherence to endothelial cells; type: cell-based; details: for inhibition of neutrophil adhesion to endothelial cells: fMLP-stimulated neutrophils, 2 hours, 37° C.; for effect of adenosine deaminase co-treatment on inhibition of neutrophil adhesion: with adenosine deaminase 0.125 U/mL
Protocol: The ability of an adenosine kinase inhibitor to affect neutrophil adherence to fibroblasts and endothelial cells was evaluated in a cell culture model. […] These incubations were carried out in the presence of fMLP-stimulated human neutrophils isolated from whole blood (1.25×10^6/mL) with or without adenosine deaminase (0.125 U/mL). At the end of the incubation, the medium was removed and the monolayers of fibroblasts or endothelial cells and adherent neutrophils were fixed by addition of formaldehyde (3.7%) and, after washing to remove non-adherent neutrophils, adherent neutrophils were stained with Weigart's hematoxylin and counted under a light microscope.

[5] = system: Mycobacterium butyricum adjuvant arthritis; experiment: Adjuvant arthritis in rats; type: in vivo, Lewis rats
Protocol: Lewis rats received a single subcutaneous tail injection of 0.75 mg Mycobacterium butyricum mixed in paraffin oil on day 0. […] Hind paw volume was measured by Mercury displacement.

[6] = system: adenosine uptake, rat brain slices; details: cited from earlier work
[7] = mouse, in vivo; cited from earlier work
[8] = biological target: T1, purified pig heart adenosine kinase (Sus scrofa, UniProt A0A5G2R0F5); experiment: Inhibition of adenosine kinase activity (purified pig heart enzyme); type: biochemical
T1 construct: purified pig heart adenosine kinase; from tissue; host or cells: pig heart
T1 sequence (A0A5G2R0F5 1-362): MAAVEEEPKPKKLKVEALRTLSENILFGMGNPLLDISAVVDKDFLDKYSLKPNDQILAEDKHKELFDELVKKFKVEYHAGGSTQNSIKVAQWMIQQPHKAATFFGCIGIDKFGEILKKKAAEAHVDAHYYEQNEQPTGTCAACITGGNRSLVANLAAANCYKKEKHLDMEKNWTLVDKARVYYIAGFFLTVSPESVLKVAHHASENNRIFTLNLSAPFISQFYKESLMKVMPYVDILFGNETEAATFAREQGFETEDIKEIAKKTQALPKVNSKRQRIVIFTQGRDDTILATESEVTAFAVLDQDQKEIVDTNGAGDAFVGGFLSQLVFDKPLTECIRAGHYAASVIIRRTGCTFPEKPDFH
Protocol: Inhibition of enzyme activity was determined using a 0.1 mL assay mixture containing 50 mM Tris-maleate, pH 7.0, 0.1% (w/v) BSA, 1 mM ATP, 1 mM MgCl2, 0.5 μM [U-^14 C]adenosine (500 mCi/mmol) and 0.1 μg of purified pig heart adenosine kinase. Different concentrations of the test compounds were incubated in the assay mixture for 20 min. at 37° C. From each reaction mixture, 20 μl portions were removed and spotted on 2 cm^2 pieces of Whatman DE81 filter paper. […] The papers were dried, and [^14 C]AMP measured by scintillation counting.

cardiac adenosine kinase = experiment: Inhibition of cardiac adenosine kinase in vivo; details: conscious rats, i.v.
[9] = Acute i.v. hemodynamics in the rat; type: in vivo, Sprague Dawley rats
Protocol: The ability of the adenosine kinase inhibitor GP-1-238 to show effects on blood pressure, heart rate or body temperature was compared in anesthetized and conscious rats. Sprague Dawley rats were anesthetized with pentobarbital and catheterized in the jugular vein and carotid artery. GP-1-238 (0.1-5 mg/kg/min) was infused intravenously in stepwise increments (0.2 mL/min×5 minutes). The experiments in conscious rats were conducted in the same manner after rats had been catheterized and allowed to recover for 2 days following surgery.

TNF-α = experiment: Inhibition of TNF-alpha production in endotoxemic mice (ELISA); type: in vivo, Balb/C mice; details: 200 mg/kg i.p. 30 minutes prior to LPS and GP-1-515
Protocol: In these experiments, plasma TNF-α levels were measured in GP-1-515and placebo-treated mice (8 animals per group). Balb/C mice received an intravenous injection of E. coli LPS (900 ug/animal) (Sigma Chemical Co.) followed immediately by a second injection with 0.1 mg/kg of GP-1-515 or vehicle. Some animals were pretreated with an intraperitoneal injection of the adenosine receptor antagonist 8SPT. One hour later, blood was obtained from ether anesthetized animals by intracardiac puncture using a heparinized syringe. Blood samples were chilled on ice, centrifuged at 5000 rpm in a microcentrifuge for 5 minutes, and the plasma removed. TNF-α levels in the plasma were assayed by ELISA according to the instructions provided by the manufacturer (Endogen, Cambridge, Mass.).

E. coli LPS endotoxemia = experiment: Survival in endotoxemia (E. coli LPS) in mice; type: in vivo, Balb/C mice; details: 200 mg/kg i.p. 30 minutes prior to LPS and drug
Source text: An adenosine kinase inhibitor (GP-1-515) was used to increase endogenous adenosine production in vivo.

[10] = system: adenosine release, isolated guinea pig hearts; details: cited from earlier work
adenosine kinase = biological target: T2, adenosine kinase (Bos taurus, UniProt A0AAA9RZ79); experiment: Adenosine kinase inhibition in intact cells (capillary endothelial cells from bovine heart); type: cell-based; details: 20 μM 2'-deoxycoformycin, 5 μM [3H]adenosine
T2 construct: endogenous in cells; host or cells: capillary endothelial cells from bovine heart
T2 sequence (A0AAA9RZ79 1-362): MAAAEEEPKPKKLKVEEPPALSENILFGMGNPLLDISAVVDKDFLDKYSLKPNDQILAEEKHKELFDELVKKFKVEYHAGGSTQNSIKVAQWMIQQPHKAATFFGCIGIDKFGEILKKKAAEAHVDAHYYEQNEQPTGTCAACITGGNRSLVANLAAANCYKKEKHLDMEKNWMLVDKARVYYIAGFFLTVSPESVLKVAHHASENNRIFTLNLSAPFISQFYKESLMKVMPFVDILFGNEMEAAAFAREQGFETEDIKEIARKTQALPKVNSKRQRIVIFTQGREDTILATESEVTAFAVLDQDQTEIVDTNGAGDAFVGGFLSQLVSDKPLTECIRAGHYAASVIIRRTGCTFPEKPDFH
Protocol: Inhibition of adenosine kinase in intact cells was determined from the amount of incorporation of radioisotope from adenosine into the adenylates (AMP, ADP and ATP) in the presence of adenosine deaminase inhibition. […] The media was then discarded and the cells were treated with 50 μl 0.4M perchloric acid, centrifuged and the supernalants neutralized with 100 μl alanine: freon (1:4).

[11] = conscious animals, doses greatly in excess of that required to inhibit cardiac adenosine kinase

**Q.** For `OC[C@H]1O[C@@H](n2cnc3c2N=CNC[C@H]3O)C[C@@H]1O` [2'-deoxycoformycin], which “adenosine release from rat cardiomyocytes” value ([1]; ADA inhibition alone) is on record?
**A.** no effect on adenosine release

**Q.** With `C[C@H]1O[C@@H](n2cc(I)c3c(N)ncnc32)[C@H](O)[C@@H]1O` [GP-1-456, 5'-deoxy-5-iodotubercidin] as the compound, how does the “adenosine uptake, guinea pig brain slices” value [2] read?
**A.** inhibited

**Q.** And the “blood pressure and heart rate in anesthetized rats” value [3]?
**A.** decrease blood pressure and heart rate

**Q.** And the “inhibition of neutrophil adhesion to endothelial cells” value [4]?
**A.** inhibit neutrophil adhesion to endothelial cells; also recorded: dose-dependent inhibition

**Q.** What about the “effect of adenosine deaminase co-treatment on inhibition of neutrophil adhesion” value [4] of the same compound?
**A.** reversed by adenosine deaminase treatment; also recorded: reversal of this inhibition

**Q.** What about the “reduction of hind paw edema” value ([5]; 3 mg/kg p.o.) of the same compound?
**A.** significant reduction of hind paw edema

**Q.** And the “total mean hind paw edema” value ([5]; 3 mg/kg p.o. day 1 through 19, day 19, untreated 2.55±0.20, p<0.05)?
**A.** 1.41 ± 0.21 mL

**Q.** What about the “adenosine uptake, rat brain slices” value [6] of the same compound?
**A.** inhibited

**Q.** What about the “body temperature in mice” value [7] of the same compound?
**A.** hypothermia

**Q.** And the “flaccidity and locomotor activity in mice” value [7]?
**A.** pronounced general flaccidity and much-reduced spontaneous locomotor activity

**Q.** With `OC[C@H]1O[C@@H](n2cc(-c3ccco3)c3c(Nc4ccccc4)ncnc32)[C@H](O)[C@@H]1O` [GP-1-718] as the compound, how does the IC50 [8] read?
**A.** < 10 nM

**Q.** What does the source list for `NC[C@H]1O[C@@H](n2cnc3c(N)ncnc32)[C@H](O)[C@@H]1O` [GP-1-238]?
**A.** inhibition of adenosine kinase in vivo (cardiac adenosine kinase): completely inhibited adenosine kinase in vivo; effect on blood pressure, conscious animals [9, 11]: No effects were observed; effect on heart rate, conscious animals [9, 11]: No effects were observed; effect on temperature, conscious animals [9, 11]: No effects were observed; hemodynamic effects, conscious rats ([9]; i.v. infusion 0.1-5 mg/kg/min, conscious rats, in contrast to anesthetized animals): no hemodynamic effects were seen

**Q.** With `Cn1c(=O)c2[nH]c(-c3ccc(S(=O)(=O)O)cc3)nc2n(C)c1=O` [8-p-sulphophenyltheophylline, reference compound] as the compound, how does the “effect on GP-1-515-induced decrease of plasma TNF-α” value (TNF-α) read?
**A.** The decrease was prevented

**Q.** And the “effect on GP-1-515-induced protection” value (E. coli LPS endotoxemia)?
**A.** completely inhibited the protective effect of GP-1-515; also recorded: blocking the GP-1-515-induced protection

**Q.** What does the source list for `NC[C@H]1O[C@@H](n2cnc3c(N)ncnc32)[C@H](O)[C@@H]1O` [5'-amino-5'-deoxyadenosine]?
**A.** adenosine release, isolated guinea pig hearts, no ADA inhibition ([10]; absence of ADA inhibition): not apparent in the absence of ADA inhibition; increase of adenosine release, isolated guinea pig hearts ([10]; in the presence of EHNA): 15 -fold; increase in adenosine release from rat cardiomyocytes ([1]; inhibition of ADA together with adenosine kinase): 6 -fold

**Q.** For `C[C@H]1O[C@@H](n2nc(-c3ccccc3)c3c(Nc4ccccc4)ncnc32)[C@H](O)[C@@H]1O` [GP-1-665], which IC50 (adenosine kinase) is on record?
**A.** 4.5 nM

**Q.** What does the source list for `CNc1ncnc2c1ncn2[C@@H]1O[C@H](CN)[C@@H](O)[C@H]1O` [GP-1-272]?
**A.** inhibition of neutrophil adhesion to endothelial cells [4]: inhibit neutrophil adhesion to endothelial cells; also recorded: dose-dependent inhibition; effect of adenosine deaminase co-treatment on inhibition of neutrophil adhesion [4]: reversed by adenosine deaminase treatment; also recorded: reversal of this inhibition
